Test results: US11364275B2, “Linear lipopeptide paenipeptins and methods of using the same” (priority 2017, dated 2022)
Converted amounts (≈) assume the structure as drawn. Like-named read-outs stand apart in the source and are kept apart here. Where a SMILES comes first, the peptide text is derived from it. [ ]: non-standard residue; d: D form. The star is where a group is joined. Cha = N[C@@H](CC1CCCCC1)C(=O)O; Decanoyl = CCCCCCCCCC(=O)*; Octanoyl = CCCCCCCC(=O)*; Dab = NCC[C@H](N)C(=O)O

Columns and labels:
[1] = system: Staphylococcus aureus ATCC 29213; assay type: cell-based; conditions: ATCC 29213
Procedure: (§4) The minimum inhibitory concentration (MIC) of paenipeptin analogues was determined using the broth microdilution method (Wirker, M. A. Methods for Dilution Antimicrobial Susceptibility Tests for Bacteria that Grow Aerobically: Approved Standard M07-A8; Clinical and Laboratory Standards Institute, Wayne, Pa., 2009). Seven reference strains (Acinetobacter baumannii ATCC 19606, Escherichia coli ATCC 25922, Klebsiella pneumoniae ATCC 13883, Pseudomonas aeruginosa ATCC 27853, Enterococcus faecium ATCC 19434, Staphylococcus aureus ATCC 29213 and methicillin-resistant S. aureus ATCC 43300) were subjected to MIC testing.
(§5) Paenipeptin analogues were two-fold diluted in tryptic soy broth (TSB; Becton Dickinson) and mixed with an equal volume of bacterial suspensions in TSB containing approximately 1.5×10^5 colony-forming units (CFU)/mL in a clear UV-sterilized 96-well microtiter plate (NBS, Corning Inc., Corning, N.Y.). […] The microtiter plate was incubated at 37° C. for 18-20 h.

[2] = system: S. aureus ATCC 29213; assay type: cell-based, Staphylococcus aureus; conditions: ATCC 29213
Procedure: (§1) The impact of human serum on the antibacterial activity of selected paenipeptin analogues was determined using a procedure similar to that used for MIC determination as described above except that the microbiological medium was replaced by human serum (MP Biomedicals, Solon, Ohio). Paenipeptin analogues were two-fold diluted in 100% human serum and mixed with an equal volume of 90% serum containing approximately 1.5×10^5 CFU/mL of E. coli ATCC 25922 or S. aureus ATCC 29213. The final paenipeptin concentrations ranged from 0.5-64 μg/mL in 95% serum. The MIC in the presence of serum was then tested as described above.

[3] = system: methicillin-resistant S. aureus ATCC 43300; assay type: cell-based, Staphylococcus aureus; conditions: ATCC 43300
[4] = system: P. aeruginosa ATCC 27853; assay type: cell-based, Pseudomonas aeruginosa
Text: (§2) The surviving cells from each antimicrobial concentration with no visible growth were enumerated by plating on tryptic soy agar (TSA). MBC was defined as the lowest concentration of the antimicrobial agent that led to at least a 99.9% reduction in the number of viable bacterial cells relative to the initial inoculum. There were three independent experiments with one replicate in each experiment.

[5] = system: A. baumannii ATCC 19606; assay type: cell-based, Acinetobacter baumannii
Text: as §2

[6] = system: S. aureus ATCC 43300; assay type: cell-based, Staphylococcus aureus
Text: as §2

[7] = system: Klebsiella pneumoniae ATCC 13883; assay type: cell-based; conditions: ATCC 13883
[8] = system: Escherichia coli ATCC 25922; assay type: cell-based; conditions: ATCC 25922
Procedure: as §4, §5

[9] = system: K. pneumoniae ATCC 13883; assay type: cell-based, Klebsiella pneumoniae
Text: as §2

[10] = system: E. faecium ATCC 19434; assay type: cell-based, Enterococcus faecium
Text: as §2

[11] = system: rabbit red blood cells; assay: Hemolytic activity; assay type: cell-based; conditions: for Hemolysis: relative to Triton X-100
Procedure: Hemolytic activity was evaluated using defibrinated rabbit blood in a 96-well plate as described previously. A nonionic surfactant Triton X-100, which is capable of lysing red blood cells (RBCs), was used at 0.1% as a positive control. Briefly, rabbit blood (Hardy Diagnostics, Santa Maria, Calif.) was diluted with phosphate buffered saline (PBS; pH 7.2) at a 1:19 ratio (v/v) and free hemoglobin was removed by washing RBCs and centrifugation four times at 1,000×g at 4° C. for 5 min. Aliquots (50 μL) of washed RBCs were incubated with 150 μL two-fold dilutions of paenipeptin analogues at final concentrations of 16-128 μg/mL at 37° C. for 30 min in a microtiter plate (NBS, Corning Inc.). After incubation, treated RBCs were gently mixed by repeated pipetting. Aliquots (20 μL) of the cell suspension were mixed with 200 μL PBS in a new 96-well plate and centrifuged at 2,204×g for 10 min. The supernatant was transferred to a new 96-well plate for absorbance measurement at 415 nm using a Cell Imaging Multimode Reader (Cytation 3, BioTek; Winooski, Vt.). The percent hemolysis observed after exposure to each paenipeptin analogue was calculated relative to Triton X-100.

[12] = system: Pseudomonas aeruginosa ATCC 27853; assay type: cell-based; conditions: ATCC 27853
Procedure: as §4, §5

[13] = system: methicillin-resistant S. aureus strain LAC biofilm; assay: Established catheter-associated biofilm in vitro; assay type: cell-based, Staphylococcus aureus; conditions: data not shown
Procedure: Each well was inoculated with the methicillin-resistant S. aureus strain LAC or P. aeruginosa ATCC 27853 to an OD600nm of 0.05. […] After 72 h of exposure, catheters were rinsed with PBS, followed by sonication (for S. aureus) or vigorous vortexing (for P. aeruginosa) to quantitatively recover adherent bacteria. Viable S. aureus or P. aeruginosa cells were enumerated by plating serial dilutions on TSA.

[14] = system: S. aureus ATCC 29213; assay type: cell-based, Staphylococcus aureus
Text: as §2

[15] = system: Acinetobacter baumannii ATCC 19606; assay type: cell-based; conditions: ATCC 19606
Procedure: as §4, §5

[16] = system: E. coli ATCC 25922; assay type: cell-based, Escherichia coli; conditions: ATCC 25922
Procedure: as §1

[17] = system: Enterococcus faecium ATCC 19434; assay type: cell-based; conditions: ATCC 19434
Procedure: as §4, §5

[18] = system: Acinetobacter baumannii ATCC 19606; assay: MIC of antibiotics with or without paenipeptin analogues (potentiation); assay type: cell-based; conditions: A. baumannii ATCC 19606; for Sensitization factor (clarithromycin) / Sensitization factor (erythromycin): 4 μg/mL paenipeptin
Text: (§3) Gram-negative bacteria, including Acinetobacter and Klebsiella, are intrinsically resistant to the hydrophobic antibiotic rifampicin.

[19] = system: Klebsiella pneumoniae ATCC 13883; assay: as above; assay type: cell-based; conditions: K. pneumoniae ATCC 13883; for Sensitization factor (clarithromycin): 4 μg/mL paenipeptin
Text: as §3

[20] = system: Escherichia coli ATCC 25922; assay type: in vitro ADME
Procedure: To determine the stability of peptides in human serum, paenipeptin analogues were added into 100% human serum to a final concentration of 64 μg/ml. The mixtures were incubated at 37° C. and samples were withdrawn at 0, 6, 12 and 24 h. […] The residual antibacterial activity after incubation in human serum was compared to the non-treated control.

[21] = system: S. aureus ATCC 29213; conditions: cited from earlier work

Row | Molecule | MIC [1] | Minimum inhibitory concentration [1] | Minimum inhibitory concentration [2] | MIC [3] | MBC [4] | MBC [5] | MBC [6] | MIC [7] | MIC [8] | Minimum inhibitory concentration [8] | MBC [9] | MBC [10] | Hemolysis ([11]; 16 μg/mL) | Hemolysis ([11]; 32 μg/mL) | Hemolysis ([11]; 64 μg/mL) | Hemolysis ([11]; 128 μg/mL) | MIC [12] | MIC [15] | hemolytic activity (in words) ([11]; 128 μg/mL) | Minimum inhibitory concentration [16] | also measured
1 | CCCCCCCC(=O)N[C@@H](CCN)C(=O)N[C@H](C(=O)N[C@@H](CCN)C(=O)N[C@H](Cc1ccccc1)C(=O)N[C@@H](CC(C)C)C(=O)N[C@@H](CCN)C(=O)N[C@@H](C(=O)N[C@@H](CC(C)C)C(=O)N[C@@H](CO)C(N)=O)C(C)C)[C@@H](C)CC [Analogue 8, C8-Pat] (Octanoyl-[Dab]I[Dab][dF]L[Dab][dV]LS-NH2) | 8 to 16 µg/mL | 8 to 16 µg/mL | 16 to 32 µg/mL | 8 to 16 µg/mL | 8 to 16 µg/mL | 16 to 32 µg/mL | 8 to 32 µg/mL | 8 to 16 µg/mL | 2 to 4 µg/mL | 2 to 4 µg/mL | 8 to 16 µg/mL | 16 to 32 µg/mL | 0.93 ± 0.45% | 1.91 ± 0.25% | 6.18 ± 2.48% | 25.3 ± 4.15% | – | – | – | – | –
2 | CCCCCCCCCC(=O)N[C@@H](CCN)C(=O)N[C@H](C(=O)N[C@@H](CCN)C(=O)N[C@H](Cc1ccccc1)C(=O)N[C@@H](CC(C)C)C(=O)N[C@@H](CCN)C(=O)N[C@@H](C(=O)N[C@@H](CC(C)C)C(=O)N[C@@H](CO)C(N)=O)C(C)C)[C@@H](C)CC [Analogue 12] (Decanoyl-[Dab]I[Dab][dF]L[Dab][dV]LS-NH2) | 2 to 4 µg/mL | 2 to 4 µg/mL | – | 2 to 4 µg/mL | 2 to 4 µg/mL | 0.5 to 2 µg/mL | 2 to 4 µg/mL | 2 to 4 µg/mL | 2 to 8 µg/mL | 2 to 8 µg/mL | 4 to 8 µg/mL | 2 to 4 µg/mL | 14.3 ± 4.25% | 37.2 ± 8.62% | 73.4 ± 7.59% | 93.9 ± 7.57% | 1 to 2 µg/mL | 0.5 to 2 µg/mL | strong hemolytic activity | – | activity against established catheter-associated biofilm (in words) [13]: no activity; MBC [14]: 4 to 8 µg/mL
3 | CC[C@H](C)[C@H](NC(=O)[C@H](CCN)NC(=O)[C@@H](N)CC1CCCCC1)C(=O)N[C@@H](CCN)C(=O)N[C@H](Cc1ccccc1)C(=O)N[C@@H](CC(C)C)C(=O)N[C@@H](CCN)C(=O)N[C@@H](C(=O)N[C@@H](CC(C)C)C(=O)N[C@@H](CO)C(N)=O)C(C)C [Analogue 16] (H-[Cha][Dab]I[Dab][dF]L[Dab][dV]LS-NH2) | >32 µg/mL | >32 µg/mL | >64 µg/mL | – | 16 to 32 µg/mL | – | – | – | 4 to 8 µg/mL | 4 to 8 µg/mL | – | – | 0.55 ± 0.75% | 0.33 ± 0.83% | 0.65 ± 0.62% | 1.63 ± 0.40% | 2 to 8 µg/mL | ≥32 µg/mL | non-hemolytic | 2 µg/mL (≈ 1.75 µM) | MIC [17]: >32 µg/mL; MIC of ampicillin in the presence of […] μg/ml paenipeptin analogue [18]: 8-16 μg/ml; MIC of clarithromycin in the presence of […] μg/ml paenipeptin analogue [18]: 0.0156 μg/ml; MIC of erythromycin in the presence of […] μg/ml paenipeptin analogue [18]: 0.5 μg/ml; MIC of rifampicin at 2 μg/mL of paenipeptin analogue [18]: 0.0039-0.0078 μg/ml; MIC of vancomycin in the presence of […] μg/ml paenipeptin analogue [18]: 0.5-1 μg/ml; Sensitization factor (clarithromycin) [18]: 2,048; Sensitization factor (erythromycin) [18]: 64; Sensitization factor (rifampicin) ([18]; MIC without / with 4 μg/mL paenipeptin): 4,096; MIC of ampicillin in the presence of […] μg/ml paenipeptin analogue [19]: 32 μg/ml; MIC of erythromycin in the presence of […] μg/ml paenipeptin analogue [19]: 0.0625 μg/ml; MIC of rifampicin at 2 μg/mL of paenipeptin analogue [19]: 0.0039 μg/ml; MIC of rifampicin at 4 μg/mL of paenipeptin analogue [19]: <0.00098-0.00195 μg/ml; MIC of vancomycin in the presence of […] μg/ml paenipeptin analogue [19]: >32 μg/ml; Sensitization factor (clarithromycin) [19]: 2,048-4,096; MIC after incubation in human serum at 37° C. [20]: > 32 µg/mL; MIC after incubation in human serum at 37° C. ([20]; ATCC 25922, 0 h): 1 to 2 µg/mL; MIC after incubation in human serum at 37° C. ([20]; ATCC 25922, 12 h): >32 µg/mL; MIC after incubation in human serum at 37° C. ([20]; ATCC 25922, 24 h): >32 µg/mL
4 | MX-2401 | – | – | – | – | – | – | – | – | – | – | – | – | – | – | – | – | – | – | – | – | MIC ([21]; 95% mouse serum): 128 µg/mL; MIC ([21]; microbiological medium): 2 µg/mL
5 | CCCCCCCC(=O)N[C@@H](CCN)C(=O)N[C@H](C(=O)N[C@@H](CCN)C(=O)N[C@H](Cc1ccccc1)C(=O)N[C@@H](CC(C)C)C(=O)N[C@@H](CCN)C(=O)N[C@@H](C(=O)N[C@@H](CC(C)C)C(=O)N[C@@H](CCN)C(N)=O)C(C)C)[C@@H](C)CC [Analogue 9] (Octanoyl-[Dab]I[Dab][dF]L[Dab][dV]L[Dab]-NH2) | >32 µg/mL | >32 µg/mL | – | – | – | – | – | >32 µg/mL | 4 to 16 µg/mL | 4 to 16 µg/mL | – | – | 0.52 ± 0.58% | 0.80 ± 0.68% | 0.73 ± 0.50% | 2.25 ± 2.18% | 2 to 4 µg/mL | ≥32 µg/mL | non-hemolytic | 2 to 4 µg/mL | MIC of ampicillin in the presence of […] μg/ml paenipeptin analogue [18]: 1-2 μg/ml; MIC of erythromycin in the presence of […] μg/ml paenipeptin analogue [18]: 0.125-0.25 μg/ml; MIC of rifampicin at 2 μg/mL of paenipeptin analogue [18]: 0.0019 μg/ml; MIC of rifampicin at 4 μg/mL of paenipeptin analogue [18]: 0.00195 μg/ml; MIC of vancomycin in the presence of […] μg/ml paenipeptin analogue [18]: 0.25-0.5 μg/ml; Sensitization factor (clarithromycin) [18]: 4,096-8,192; Sensitization factor (erythromycin) [18]: 128-256; MIC of ampicillin in the presence of […] μg/ml paenipeptin analogue [19]: 32 μg/ml; MIC of clarithromycin in the presence of […] μg/ml paenipeptin analogue [19]: 0.0156 μg/ml; MIC of erythromycin in the presence of […] μg/ml paenipeptin analogue [19]: 0.0625 μg/ml; MIC of rifampicin at 4 μg/mL of paenipeptin analogue [19]: <0.00098-0.00195 μg/ml; MIC of vancomycin in the presence of […] μg/ml paenipeptin analogue [19]: 16 μg/ml; Sensitization factor (clarithromycin) [19]: 2,048; MIC after incubation in human serum at 37° C. ([20]; ATCC 25922, 0 h): 1 to 2 µg/mL; MIC after incubation in human serum at 37° C. ([20]; ATCC 25922, 12 h): 1 to 2 µg/mL
